Structures can show the parent of a compound that is named as a salt.
Target: T1, human liver glycogen phosphorylase (Homo sapiens, UniProt P06737)
T1 construct: made in house; host or cells: Sf9 insect cells (suspension of disrupted cells, diluted in BES buffer, not purified)
T1 sequence (P06737 1-847): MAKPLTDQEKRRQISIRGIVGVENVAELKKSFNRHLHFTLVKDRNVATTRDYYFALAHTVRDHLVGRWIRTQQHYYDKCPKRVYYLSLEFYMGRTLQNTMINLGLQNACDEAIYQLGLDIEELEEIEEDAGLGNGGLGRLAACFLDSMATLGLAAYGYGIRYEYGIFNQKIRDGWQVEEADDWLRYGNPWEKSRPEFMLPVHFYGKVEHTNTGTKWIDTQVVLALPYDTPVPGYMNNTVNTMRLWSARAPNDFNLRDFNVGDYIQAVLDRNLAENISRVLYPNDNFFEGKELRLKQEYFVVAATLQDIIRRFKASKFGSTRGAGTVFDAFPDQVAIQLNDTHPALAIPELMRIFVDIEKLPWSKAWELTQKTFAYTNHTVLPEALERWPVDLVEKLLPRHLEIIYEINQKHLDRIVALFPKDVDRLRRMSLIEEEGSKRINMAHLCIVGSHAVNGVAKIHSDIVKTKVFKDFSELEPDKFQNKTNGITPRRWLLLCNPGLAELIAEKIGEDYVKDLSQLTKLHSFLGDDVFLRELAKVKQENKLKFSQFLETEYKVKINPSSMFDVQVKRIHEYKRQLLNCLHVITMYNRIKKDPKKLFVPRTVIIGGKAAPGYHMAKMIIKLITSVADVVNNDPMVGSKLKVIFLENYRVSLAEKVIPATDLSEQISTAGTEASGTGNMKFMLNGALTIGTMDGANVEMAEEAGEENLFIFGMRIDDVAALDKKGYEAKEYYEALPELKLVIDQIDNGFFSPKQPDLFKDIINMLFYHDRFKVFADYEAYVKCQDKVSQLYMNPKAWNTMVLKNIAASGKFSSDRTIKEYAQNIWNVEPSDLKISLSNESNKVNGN
Test: Liver glycogen phosphorylase activity, forward reaction system (NADPH detection at 340 nm)
Assay type: biochemical
Settings: enzyme inhibitory activity against recombinant human liver glycogen phosphorylase (Sf9 cell lysate), room temperature, 75 minutes
Procedure: The glycogen phosphorylase activity was determined by a method using a forward reaction system.
The following method was used to determine the glycogen phosphorylase activity using a forward reaction system. Glucose-1-phosphate generated from glycogen by glycogen phosphorylase was converted to glucono-δ-lactone-6-phosphate by transphosphorylation and dehydrogenation reactions using phosphoglucomutase and glucose-6-phosphate dehydrogenase (G6PDH). At this time, NADPH generated from NADP in the dehydrogenation reaction by G6PDH was detected.
An enzyme solution of human liver glycogen phosphorylase was obtained by diluting with 100 mmol/L BES buffer (pH 6.8, containing 2 mmol/L EDTA) a suspension disrupted Sf9 cells in which a recombinant human liver glycogen phosphorylase was forcibly expressed. Phosphate buffer (16 mmol/L KH2PO4, containing 24 mmol/L Na2HPO4) was used as a substrate solution. A mixture of 8 U/mL phosphoglucomutase and 60 U/mL G6PDH was prepared with BES buffer. A reaction buffer (1.4 mmol/L NADP, 30 mmol/L MgCl2, 8 μmol/L glucose-1,6-diphosphate, 8 mg/mL glycogen, 40 mmol/L BES, containing 0.8 mmol/L EDTA) and a glucose solution (75 mmol/L glucose and 100 mmol/L BES, containing 2 mmol/L EDTA) were prepared. A test substance was dissolved in 1% DMSO aqueous solution.
To a mixture of the glucose solution (20 μL), the substrate solution (20 μL), the reaction buffer (100 μL), and the test substance (20 μL), the recombinant human liver glycogen phosphorylase solution (20 μL), and a mixture (20 μL) of phosphoglucomutase and G6PDH were added to initiate an enzymatic reaction. To a control, 1% DMSO aqueous solution was added instead of the test substance. A solution to which the substrate was not added was used as a blank. After initiation of the reaction, absorbance at 340 nm was measured immediately. The reaction was performed at room temperature for 75 minutes, and then absorbance at 340 nm was measured again. The enzyme activity was obtained by deducting the change in absorbance of the blank for 75 minutes from the change in absorbance over 75 minutes. The inhibition rate (%) of the test substance was calculated by “(1−(enzyme activity of test substance)/(enzyme activity of control))×100”.
“IC50” represents an enzyme inhibitory activity against human liver glycogen phosphorylase.

Structure (SMILES) | IC50 [nM]
O=C(O)c1cc(CNC(=O)c2cc(NC(=O)c3cc(F)c(F)cc3Cl)[nH]n2)on1 [Example 3-3, 5-(2-chloro-4,5-difluoro-benzoylamino)-1H-pyrazole-3-carboxylic acid (3-carboxy-isoxazol-5-ylmethyl)-amide] | 100 to 300
O=C(NCc1sccc1OCc1ccccc1)c1cc(NC(=O)c2cc(F)c(F)cc2Cl)[nH]n1 [Example 1-3, 5-(2-chloro-4,5-difluoro-benzoylamino)-1H-pyrazole-3-carboxylic acid (3-benzyloxy-thiophen-2-ylmethyl)-amide] | 100 to 300
CCN(CC)S(=O)(=O)c1ccsc1CNC(=O)c1cc(NC(=O)c2cc(F)c(F)cc2Cl)[nH]n1 [Example 1-2, 5-(2-chloro-4,5-difluoro-benzoylamino)-1H-pyrazole-3-carboxylic acid (3-diethylsulfamoyl-thiophen-2-ylmethyl)-amide] | 100 to 300
Cc1nc(C(=O)O)sc1CNC(=O)c1cc(NC(=O)c2cc(F)c(F)cc2Cl)[nH]n1 [Example 3-2, sodium 5-({[5-(2-chloro-4,5-difluoro-benzoylamino)-1H-pyrazole-3-carbonyl]-amino}-methyl)-4-methyl-thiazole-2-carboxylate] | < 100
O=C(NCc1nnc(-c2cccc(Cl)c2)o1)c1cc(NC(=O)c2cc(F)c(F)cc2Cl)[nH]n1 [Example 1-59, 5-(2-chloro-4,5-difluoro-benzoylamino)-1H-pyrazole-3-carboxylic acid [5-(3-chloro-phenyl)-[1,3,4]oxadiazol-2-ylmethyl]-amide] | < 100
Cc1nc(COC(=O)c2cccs2)c(CNC(=O)c2cc(NC(=O)c3cc(F)c(F)cc3Cl)[nH]n2)o1 [Example 3-22, 5-(2-chloro-4,5-difluoro-benzoylamino)-1H-pyrazole-3-carboxylic acid [2-methyl-4-(thiophene-2-carbonyloxymethyl)-oxazol-5-ylmethyl]-amide] | < 100
O=C(O)Cc1nnc(CNC(=O)c2cc(NC(=O)c3cc(F)c(F)cc3Cl)[nH]n2)o1 [Example 3-19, 5-(2-chloro-4,5-difluoro-benzoylamino)-1H-pyrazole-3-carboxylic acid (5-carboxymethyl-[1,3,4]oxadiazol-2-ylmethyl)-amide] | 100 to 300
O=C(NCc1nnc(-c2cc3ccccc3s2)o1)c1cc(NC(=O)c2cc(F)c(F)cc2Cl)[nH]n1 [Example 1-77, 5-(2-chloro-4,5-difluoro-benzoylamino)-1H-pyrazole-3-carboxylic acid (5-benzo[b]thiophen-2-yl-[1,3,4]oxadiazol-2-ylmethyl)-amide] | 100 to 300
CCc1nc(Cc2nc(C)c(CNC(=O)c3cc(NC(=O)c4cc(F)c(F)cc4Cl)[nH]n3)o2)n[nH]1 [Example 1-86, 5-(2-chloro-4,5-difluoro-benzoylamino)-1H-pyrazole-3-carboxylic acid [2-(5-ethyl-1H-[1,2,4]thiazol-3-ylmethyl)-4-methyl-oxazol-5-ylmethyl]-amide hydrochloride] | < 100

Now from value to compound:

IC50 [nM] | Structure (SMILES)
< 100 | COc1ccc(Cc2nc(CNC(=O)c3cc(NC(=O)c4cc(F)c(F)cc4Cl)[nH]n3)n[nH]2)cc1OC [Example 1-88, 5-(2-chloro-4,5-difluoro-benzoylamino)-1H-pyrazole-3-carboxylic acid [5-(3,4-dimethoxy-benzyl)-1H-[1,2,4]triazol-3-ylmethyl]-amide]
< 100 | Cc1cccc(-n2nc(C)c(CNC(=O)c3cc(NC(=O)c4cc(F)c(F)cc4Cl)[nH]n3)c2C)c1 [Example 1-66, 5-(2-chloro-4,5-difluoro-benzoylamino)-1H-pyrazole-3-carboxylic acid [3,5-dimethyl-1-(3-methyl-phenyl)-1H-pyrazol-4-ylmethyl]-amide]
< 100 | Cc1noc(-c2ccnc(Cl)c2)c1CNC(=O)c1cc(NC(=O)c2cc(F)c(F)cc2Cl)[nH]n1 [Example 1-20, 5-(2-chloro-4,5-difluoro-benzoylamino)-1H-pyrazole-3-carboxylic acid [5-(2-chloro-pyridin-4-yl)-3-methylisoxazol-4-ylmethyl]-amide]
< 100 | CCOC(=O)c1nc(C)oc1CNC(=O)c1cc(NC(=O)c2cc(F)c(F)cc2Cl)[nH]n1 [Example 1-34, 5-(2-chloro-4,5-difluoro-benzoylamino)-1H-pyrazole-3-carboxylic acid (4-ethoxycarbonyl-2-methyl-oxazol-5-ylmethyl)-amide]
< 100 | O=C(NCc1nnc(-c2ccc(Cl)cc2)o1)c1cc(NC(=O)c2cc(F)c(F)cc2Cl)[nH]n1 [Example 1-52, 5-(2-chloro-4,5-difluoro-benzoylamino)-1H-pyrazole-3-carboxylic acid [5-(4-chloro-phenyl)-[1,3,4]oxadiazol-2-ylmethyl]-amide]
< 100 | Cc1cc(-c2onc(C)c2CNC(=O)c2cc(NC(=O)c3cc(F)c(F)cc3Cl)[nH]n2)no1 [Example 1-18, 5-(2-chloro-4,5-difluoro-benzoylamino)-1H-pyrazole-3-carboxylic acid (5,3′-dimethyl-[3,5′]biisoxazolyl-4′-ylmethyl)-amide]
< 100 | Cc1nc(-c2cccc(F)c2)c(CNC(=O)c2cc(NC(=O)c3cc(F)c(F)cc3Cl)[nH]n2)o1 [Example 1-26, 5-(2-chloro-4,5-difluoro-benzoylamino)-1H-pyrazole-3-carboxylic acid [4-(3-fluoro-phenyl)-2-methyl-oxazol-5-ylmethyl]-amide]
< 100 | Cc1nc(COC(=O)c2ccccc2)c(CNC(=O)c2cc(NC(=O)c3cc(F)c(F)cc3Cl)[nH]n2)o1 [Example 3-5, 5-(2-chloro-4,5-difluoro-benzoylamino)-1H-pyrazole-3-carboxylic acid (4-benzoyloxymethyl-2-methyl-oxazol-5-ylmethyl)-amide]
< 100 | CCN(CC)C(=O)COCc1nc(C)c(CNC(=O)c2cc(NC(=O)c3cc(F)c(F)cc3Cl)[nH]n2)o1 [Example 3-8, 5-(2-chloro-4,5-difluoro-benzoylamino)-1H-pyrazole-3-carboxylic acid (2-diethylcarbamoyl methoxymethyl-4-methyl-oxazol-5-ylmethyl)-amide]
< 100 | Cc1nc(Cc2ccccc2)c(CNC(=O)c2cc(NC(=O)c3cc(F)c(F)cc3Cl)[nH]n2)o1 [Example 1-36, 5-(2-chloro-4,5-difluoro-benzoylamino)-1H-pyrazole-3-carboxylic acid (4-benzyl-2-methyl-oxazol-5-ylmethyl)-amide p-toluenesulfonate]
< 100 | CC(=O)NCc1nc(C)c(CNC(=O)c2cc(NC(=O)c3cc(F)c(F)cc3Cl)[nH]n2)o1 [Example 3-12, 5-(2-chloro-4,5-difluoro-benzoylamino)-1H-pyrazole-3-carboxylic acid [2-(acetylamino-methyl)-4-methyl-oxazol-5-ylmethyl]-amide dihydrochloride]
< 100 | Cc1nnsc1-c1nnc(CNC(=O)c2cc(NC(=O)c3cc(F)c(F)cc3Cl)[nH]n2)o1 [Example 1-78, 5-(2-chloro-4,5-difluoro-benzoylamino)-1H-pyrazole-3-carboxylic acid [5-(4-methyl-[1,2,3]thiadiazol-5-yl)-[1,3,4]oxadiazol-2-ylmethyl]-amide]
< 100 | Cc1cc(-c2nnsc2CNC(=O)c2cc(NC(=O)c3cc(F)c(F)cc3Cl)[nH]n2)c(C)o1 [Example 1-84, 5-(2-chloro-4,5-difluoro-benzoylamino)-1H-pyrazole-3-carboxylic acid [4-(2,5-dimethyl-furan-3-yl)-[1,2,3]thiadiazol-5-ylmethyl]-amide]
